Experimental data taken from patent US5498788A, “Inclusion complexes of clavulanic acid and of potassium salts thereof with hydrophobic β-cyclodextrin derivatives a process for the preparation thereof” (LEK, tovarna farmacevtskih, priority 1992, dated 1996).

Experiments:
[1] = Stability test of complexed and uncomplexed potassium clavulanate in artificial gastric juice (pH 1.2, 37° C.); type: physicochemical
Procedure: Stability test of complexed and uncomplexed potassium clavulanate in artificial gastric juice (pH 1.2) at the temperature of 37° C.
For the test the following samples were used:
Medium: artificial gastric juice--aq. HCl/NaCl buffer, pH 1.2, according to USP XXII.
Concentration of clavulanic acid (abbr. KA) in samples: 4 mg/ml.
The samples 1 to 3 were dissolved under stirring in an artificial gastric juice (100 ml) thermostated at 37° C., at the concentration of 4 mg/ml with regard to the clavulanic acid. Subsequently, 100 μl aliquots were taken at 5 min intervals for analysis by the HPLC, until a more than 95% KA decomposition was found. The solution was stirred all the time at the temperature of 37° C. ±0.5° C.
Separately, a series of ten 10 ml aliquots of KA-TA-β-CD suspension in a buffer of a pH of 1.2 (cone. of KA=4 mg/ml), which were constantly stirred during thermostating at 37° C., was prepared. At time intervals of 5 to 10 min, the individual aliquots were filtered (membrane filter 0.4 μm) and in the clear filtrate the concentration of clavulanic acid was determined by HPLC. The KA content at times up to 90 min of thermostating was noted.
The results of measurements after 15, 30, 45, 60 and 90 min of thermostating the samples at 37° C. in a buffer at pH 1.2 are shown in following Table.

β-lactamases = conditions: cited from earlier work
[2] = cited from earlier work
[3] = penicillinic and cephalosporin class; cited from earlier work

O=C(O)[C@H]1/C(=C/CO)O[C@@H]2CC(=O)N21 [clavulanic acid, (2R,5R,Z)-3-(2-hydroxyethylidene)-7-oxo-4-oxa-1-azabicyclo[3.2.0]heptane-2-carboxylic acid]
time of 95% decomposition of clavulanic acid ([1]; conditions present in gastric juice, 37° C.): 26 min | inhibition of β-lactamases (in words) (β-lactamases): inhibitors of β-lactamases | solubility in water (in words) [2]: very well soluble in water | effect in combination with β-lactam antibiotics [3]: synergistic effect

O=C(O)[C@H]1/C(=C/CO)O[C@@H]2CC(=O)N21 [KK, potassium clavulanate]
remaining at 0.25 h ([1]; artificial gastric juice, 15 min thermostating, pH 1.2, 37° C., KA 4 mg/ml, read-out: KA (undecomp.) as to the initial KA conc. (100%) in samples): 18.1% | remaining at 0.5 h ([1]; artificial gastric juice, 30 min thermostating, pH 1.2, 37° C., KA 4 mg/ml, read-out: KA (undecomp.) as to the initial KA conc. (100%) in samples): 1.3% | remaining at 0.75 h ([1]; artificial gastric juice, 45 min thermostating, pH 1.2, 37° C., KA 4 mg/ml, read-out: KA (undecomp.) as to the initial KA conc. (100%) in samples): 0% | time of 95% decomposition of clavulanic acid (t95%) ([1]; pH 1.2, 37° C. (FIG. 9)): 26 min
